The record followed here is patent US20050032149A1, “Enzyme catalyzed isotope labeling” (priority 2003, published 2005).

In experiment [1] the target is T1, trypsin (Sus scrofa, UniProt P00761).
T1 construct: purchased Promega (Madison, Wis.)
The experiment in a line: Kinetics of 16O-to-18O exchange of YGGFMK and YGGFMR catalyzed by trypsin (MALDI-FT-ICR-MS). It counts as biochemical. As for the experimental part: Kinetics Measurement of ^16O-to-^18O Exchange of YGGFMK and YGGFMR Catalyzed by Trypsin. […] Aliquots of the reaction mixture were taken at different time intervals for the first 10% of reactant conversion. The reaction temperature was maintained at 26±1° C., and the ionic strength was controlled by NaCl (45 mM). The reaction volume was typically 20 μL. The change of the peak intensity for the peptide was monitored by MALDI-FT-ICR-MS. Substrate concentrations used in the kinetics studies ranged between 0.2 KM and 5 KM, and measurements were duplicated for each substrate concentration. At high concentrations (>10 mM) of YGGFMK, acetonitrile (10% v/v) was used to increase the substrate solubility in reaction buffer. A full course of ^16O-to-^18O exchange reaction of YGGFMR was also recorded using similar conditions.
(§1) MALDI-FT-ICR Mass Spectrometric Analysis. Reaction mixtures in H2^18O were diluted with 70:30 acetonitrile:water (0.1% TFA) to obtain a final peptide concentration of about 10 pmol/μl. A 0.6 μL aliquot of this solution was applied on the MALDI stainless steel probe followed by 0.6 μL of a solution of 2,5-dihydroxybezoic acid (500 mM) in 70:30 acetonitrile:water (0.1% TFA). The mixture was gently stirred during the crystallization. An FT-ICR instrument equipped with a 4.7 T actively shielded magnet (lonspec Co., Irvine, Calif.) was used for this study. An external MALDI ion source was differentially pumped. A pulsed (5 ns width) Nd:YAG laser (Minilite, Contimuum, Inc., Santa Clara, Calif.) was operated at 355 nm (triple of its fundamental frequency). The laser energy was attenuated by adjusting the angle between two Glan-laser prism polarizers (Karl-Lambrecht Co., Chicago, Ill.). Ions were injected into the ICR cylindrical cell by an RF-only quadrupole ion guide. A 4 ms nitrogen pulse was used to trap the ions and remove their excess of kinetic energy. After a 4 s delay, the ions were excited by a 35 Vb-p RF sweep during 4 ms (29-180 kHz). The image signal was amplified and digitized at an acquisition rate of 2 MHz (512 k data point) resulting in the recording of a 262.1 ms time domain, which gave a typical mass resolution of 10 000. The average of single time domain transients (more than 10 times) was Fourier transformed into the corresponding frequency domain (two zero fills and Blackman apodization).
MALDI-FT-ICR Mass Spectrometric Analysis of ^16O-to-^18O Exchange Reactions. […] The residual ^16O content in H2^18O (less than 5%) was not considered in formulation of the equation.
Kinetic Constants for ^16O-to-^18O Exchange of YGGFMK and YGGFMR Catalyzed by Trypsin. […] The time course for the first 10% of the reaction was limited to less than 30 min by adjusting the concentration of trypsin.
From the plots, values for kcat's, KM's, and kcat/KM's were calculated.

The target in experiment [2] is T2, α-chymotrypsin (Bos taurus, UniProt P00766).
T2 construct: purchased Sigma (St. Louis, Mo.); host or cells: bovine pancreas
The experiment in a line: Chymotryptic digestion of apomyoglobin in H2 18O, 18O2-coding of peptides. In kind it is biochemical, Bovine. The following applies: apomyoglobin 51 nmol, 200 μg α-chymotrypsin, H2 18O pH 8.0, room temperature. As for the experimental part:
Chymotryptic Digestion of Apomyoglobin in H2^18O. An apomyglobin (51 nmol) suspension in H2^18O (24 mM Tris/HCl, pH 8.0) was incubated with 200 μg of α-chymotrypsin (bovine pancreas, Sigma) at room temperature. Aliquots were taken at different time intervals for MALDI-FT-ICR analysis.
as §1, with “[…] In mass spectra, heights for” for “The average of single time domain transients (more than 10 times) was Fourier transformed into”, “monoisotope peaks for peptides, the peaks with masses 2 Da higher,” for “corresponding frequency domain (two zero fills”, “the peaks with masses 4 Da higher were measured as peak intensities I0, I2, and I4, respectively.” for “Blackman apodization).”
Exchange Reactions Catalyzed by Chymotrypsin. Chymotryptic proteolysis of apomyoglobin in H2^18O was analyzed by MALDI-FT-ICR. […]

Experiment [3] addresses T1, trypsin. The experiment in a line: Control experiment: non-Arg/Lys-terminated peptides incubated with trypsin in H2 18O. In kind it is biochemical. The settings on record: mixture VEPIPY 710 μM and YGGFM 500 μM, 200 mM Tris, 2 μg trypsin, H2 18O pH 8.5, room temperature overnight. As for the experimental part:
For the process of ^18O2-coding of Arg- and Lys-terminated peptides through two exchange reactions, a sequential mechanism (FIG. 7) is supported by the kinetics shown in FIG. 5. Trypsin-catalyzed exchange reactions are substrate-specific; only peptides with Arg or Lys in the P1 position can undergo exchanges catalyzed by trypsin. As a control experiment, a mixture of VEPIPY (710 μM) and YGGFM (500 μM) was incubated with 200 mM Tris and 2 μg trypsin in H2^18O (pH 8.5) at room-temperature overnight. […] Thus, there was not significant catalysis from either the enzyme or the buffer.

Setting [4] is: trypsin-catalyzed 16O-to-18O exchange, double reciprocal plot, pH 8.0, 26±1° C.

T1 sequence (P00761 9-231): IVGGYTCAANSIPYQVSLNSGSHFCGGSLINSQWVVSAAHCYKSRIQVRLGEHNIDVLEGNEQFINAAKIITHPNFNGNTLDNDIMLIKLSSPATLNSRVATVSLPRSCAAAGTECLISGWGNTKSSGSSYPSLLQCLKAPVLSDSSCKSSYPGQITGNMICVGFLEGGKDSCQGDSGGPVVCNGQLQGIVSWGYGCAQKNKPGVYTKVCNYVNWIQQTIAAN

One may read the Km as the concentration of substrate that gives half-maximal velocity. A word on the kcat: it is the number of substrate molecules converted per active site and unit of time at saturation. With YGGFMK, in experiment [1] (setting [4]), the Km came out at 4400 ± 700 µM and the kcat was determined as 2800 ± 300 min⁻¹. Moreover, in experiment [1] (trypsin-catalyzed exchange), the Km is 4400 µM and the kcat was 2800+−300 per min.
For “GADAQGAMTKALELF [CT9, Chymotryptic peptide of apomyoglobin]”, the “time to complete 18O2-coding” value in experiment [2] stood at 20 h.
For YGGFM, the exchange of oxygens entry in experiment [3] is reported as “No detectable exchange of oxygens”.
Turning to “TGHPETLEKF [CT4, Chymotryptic peptide of apomyoglobin]”, the “time to complete 18O2-coding” value in experiment [2] was 3.5 h.
As for “RNDIMKY [CT10, Chymotryptic peptide of apomyoglobin]”, the “time to complete 18O2-coding” value in experiment [2] came out at 1.5 h.
YGGFMR: in experiment [1] (setting [4]), the Km stood at 1300 ± 300 µM and the kcat came out at 3500 ± 500 min⁻¹. In addition, in experiment [1] (trypsin-catalyzed exchange), the Km was found to be 1300 µM and the kcat is given as 3500+−500 per min.
As for VEPIPY, the exchange of oxygens result in experiment [3] is listed as “No detectable exchange of oxygens”.
